Measurements published in the supplement of paper PMC10307832.

How the values were obtained:
Experiment in all cases: relative viability (nuclei count vs DMSO), 5 days (fraction); higher = more cells survive
[1] = compound: C(C(=O)C(=O)O)Br [Bromopyruvate] + C[C@]1(O)C[C@@H](c2nc(-c3ccc4ccc(-c5ccccc5)nc4c3)c3c(N)nccn32)C1 [Linsitinib] (partner 1 µM)
Outline: (§1)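 Relative viability is defined as nuclei in treated wells over nuclei in vehicle wells. Duplicate plates were run and medians reported. Lung cancer cell lines in 1536-well plates were dosed by pin tool one day after seeding, with one drug or with a fixed anchor-drug dose plus five library-drug doses (not always all listed) in √10 steps, and nuclei were counted after 5 days.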

[2] = compound: C(C(=O)C(=O)O)Br [Bromopyruvate] + COc1cc2c(Oc3ccc(NC(=O)C4(C(=O)Nc5ccc(F)cc5)CC4)cc3F)ccnc2cc1OCCCN1CCOCC1 [Foretinib] (partner 0.25 µM)
Outline: as §1

[3] = compound: CC(O)(CS(=O)(=O)c1ccc(F)cc1)C(=O)Nc1ccc(C#N)c(C(F)(F)F)c1 [Bicalutamide] + CS(=O)(=O)N1CCN(Cc2cc3nc(-c4cccc5[nH]ncc45)nc(N4CCOCC4)c3s2)CC1 [Pictilisib] (partner 1 µM)
Outline: as §1

[4] = compound: C(C(=O)C(=O)O)Br [Bromopyruvate] + C[C@@H](Oc1cc(-c2cnn(C3CCNCC3)c2)cnc1N)c1c(Cl)ccc(F)c1Cl [Crizotinib] (partner 1 µM)
Outline: as §1

Row | Cell Line | relative viability ([1]; first compound 1 µM) | relative viability ([1]; first compound 3.162 µM) | relative viability ([1]; first compound 10 µM) | relative viability ([1]; first compound 31.62 µM) | relative viability ([1]; first compound 100 µM) | relative viability ([2]; first compound 1 µM) | relative viability ([2]; first compound 3.162 µM) | relative viability ([2]; first compound 10 µM) | relative viability ([2]; first compound 31.62 µM) | relative viability ([2]; first compound 100 µM) | relative viability ([3]; first compound 0.08 µM) | relative viability ([3]; first compound 0.253 µM) | relative viability ([3]; first compound 0.8 µM) | relative viability ([3]; first compound 2.53 µM) | relative viability ([4]; first compound 1 µM) | relative viability ([4]; first compound 3.162 µM) | relative viability ([4]; first compound 10 µM) | relative viability ([4]; first compound 31.62 µM) | relative viability ([4]; first compound 100 µM)
1 | BEN | 0.97 | 0.869 | 0.932 | 0.929 | 0.936 | 0.975 | 0.668 | 0.542 | 0.741 | 0.591 | 0.589 | 0.472 | 0.713 | 0.632 | 0.875 | 0.935 | 0.99 | 0.753 | 1.01
2 | EMC-BAC-2 | 0.716 | 0.825 | 0.9 | 0.838 | 0.887 | 0.964 | 0.979 | 1.06 | 0.933 | 1.1 | 0.517 | 0.531 | 0.527 | 0.456 | 0.611 | 0.723 | 0.798 | 0.788 | 0.756
3 | LU99A | 0.567 | 0.563 | 0.552 | 0.614 | 0.511 | 0.834 | 0.81 | 0.812 | 0.773 | 0.846 | 0.295 | 0.321 | 0.364 | 0.209 | 0.488 | 0.689 | 0.591 | 0.554 | 0.672
4 | ABC-1 | 0.767 | 1.05 |  | 0.693 | 0.753 | 1.09 | 0.941 | 1.14 | 0.833 | 0.95 | 0.812 | 0.731 | 1.06 | 0.758 | 1.47 | 1.13 |  | 1.05 | 0.636
5 | NCI-H2170 |  |  |  |  |  | 0.961 | 1.01 | 1.07 | 0.995 | 0.966 | 0.308 | 0.298 | 0.289 | 0.302 | 1.33 | 1.24 | 1.2 | 1.29 | 1.15
6 | NCI-H1299 | 0.994 | 1.01 | 1.04 | 1.02 | 0.968 | 1.16 | 1.13 | 1.16 | 1.14 | 1.09 | 0.909 | 0.698 | 0.823 | 0.492 | 0.933 | 0.994 | 0.995 | 0.945 | 0.957
7 | EBC-1 | 0.78 | 0.963 | 0.994 | 0.905 | 0.93 | 0.1 | 0.107 | 0.102 | 0.112 | 0.0941 | 0.41 | 0.362 | 0.378 | 0.23 | 0.235 | 0.218 | 0.187 | 0.187 | 0.196
8 | NCI-H2405 | 0.938 | 0.948 | 1.11 | 0.727 | 0.907 | 1.08 | 1.07 | 1.08 | 1.04 | 1.04 | 0.478 | 0.421 | 0.556 | 0.368 | 0.79 | 0.841 | 1.04 | 0.696 | 0.907
9 | NCI-H2009 | 1.16 | 1.25 | 1.22 | 1.1 | 0.97 | 1.22 | 1.25 | 1.19 | 1.2 | 0.883 | 1.2 | 0.944 | 1.06 | 0.737 | 1.05 | 1.1 | 1.03 | 0.921 | 0.724
